Results as given in US9051342B2 (priority 2004, dated 2015).

Row | SMILES | melting point [°C]
1 | O=C(O)c1ccc(-c2ccn(-c3ccc4c(c3)OCCO4)c2)cc1 [Compound 150, 4-[1-(2,3-Dihydro-benzo[1,4]dioxin-6-yl)-1H-pyrrol-3-yl]-benzoic acid] | 273 to 276
2 | O=C(O)c1ccc(-c2ccn(-c3ccccc3)c2)cc1 [Compound 130, 4-(1-Phenyl-1H-pyrrol-3-yl)-benzoic acid] | 239 to 241
3 | N#Cc1cccc(-c2ccn(-c3ccc4c(c3)OCO4)n2)c1 [Compound 60, 3-(1-Benzo[1,3]dioxol-5-yl-1H-pyrazol-3-yl)-benzonitrile] | 144 to 147
4 | CC(C)c1ccc(-n2cnc(-c3cccc(C(=O)O)c3)c2)cc1 | 225 to 226
5 | O=C(O)c1ccc(-c2ccn(-c3ccc(F)c(F)c3)c2)cc1 [Compound 127, 4-[1-(3,4-Difluoro-phenyl)-1H-pyrrol-3-yl]-benzoic acid] | 231 to 233
6 | Nc1ccc(-c2cnn(-c3cccc(C(=O)O)c3)c2)cc1 [Compound 108, 3-[4-(4-Amino-phenyl)-pyrazol-1-yl]-benzoic acid] | 209 to 210
7 | Cc1ccc(-n2cc(-c3ccc(C(=O)O)cc3)cn2)cc1C [Compound 238, 4-[1-(3,4-Dimethyl-phenyl)-1H-pyrazol-4-yl]-benzoic acid] | 254 to 256
8 | O=C(O)c1cccc(-c2ccn(-c3ccc(Cl)cc3)c2)c1 [Compound 155, 3-[1-(4-Chloro-phenyl)-1H-pyrrol-3-yl]-benzoic acid] | 211 to 213
9 | COc1ccc(-c2ccc(-n3cnc(-c4cccc(C(=O)O)c4)n3)cc2)cc1 [Compound 27, 3-[1-(4′-Methoxy-biphenyl-4-yl)-1H-[1,2,4]triazol-3-yl]-benzoic acid] | 243 to 246
10 | CC(C)c1ccc(-c2ccc(-n3cnc(-c4cccc(C(=O)O)c4)n3)cc2)cc1 [Compound 28, 3-[1-(4′-Isopropyl-biphenyl-4-yl)-1H-[1,2,4]triazol-3-yl]-benzoic acid] | 225 to 228
11 | COc1ccc2c(c1)-c1cnn(-c3cccc(C(=O)O)c3)c1CC2 [Compound 254, 3-(8-Methoxy-4,5-dihydro-benzo[e]indazol-3-yl)-benzoic acid] | 269 to 271
12 | O=C(O)c1cccc(-c2nn(-c3cccc(F)c3)c(=O)[nH]2)c1 [Compound 42, 3-[1-(3-Fluoro-phenyl)-5-oxo-4,5-dihydro-1H-[1,2,4]triazol-3-yl]-benzoic acid] | > 310
13 | O=C(O)c1cccc(-n2cc3c(n2)-c2ccccc2C3)c1 [Compound 138, 3-(4H-Indeno[1,2-c]pyrazol-2-yl)-benzoic acid] | 249 to 250
14 | Cc1ccc(-c2cn(-c3ccc(C(=O)O)cc3)nn2)cc1 [Compound 201, 4-(4-p-Tolyl-[1,2,3]triazol-1-yl)-benzoic acid] | 302 to 303
15 | N#Cc1cccc(-c2ccn(-c3ccc(F)c(F)c3)n2)c1 [Compound 63, 3-[1-(3,4-Difluoro-phenyl)-1H-pyrazol-3-yl]-benzonitrile] | 142 to 145
16 | Cc1ccc(-n2ccc(-c3cccc(C(=O)O)c3)c2)cc1 [Compound 156, 3-(1-p-Tolyl-1H-pyrrol-3-yl)-benzoic acid] | 178 to 181
17 | Cc1ccccc1-n1ccc(-c2ccc(C(=O)O)cc2)c1 [Compound 195, 4-(1-o-Tolyl-1H-pyrrol-3-yl)-benzoic acid] | 208 to 209
18 | O=C(O)c1cccc(-c2ccn(-c3cc(F)ccc3F)c2)c1 [Compound 242, 3-[1-(2,5-Difluoro-phenyl)-1H-pyrrol-3-yl]-benzoic acid] | 193 to 194
19 | O=C(O)c1ccc(-n2cc(-c3ccc4c(c3)OCO4)cn2)cc1 [Compound 205, 4-(4-Benzo[1,3]dioxol-5-yl-pyrazol-1-yl)-benzoic acid] | 286 to 288
20 | O=C(O)c1cccc(-c2ncn(-c3ccc(-c4cc5ccccc5o4)cc3)n2)c1 [Compound 26, 3-[1-(4-Benzofuran-2-yl-phenyl)-1H-[1,2,4]triazol-3-yl]-benzoic acid] | 293 to 295
21 | O=C(O)c1cccc(-n2ccc(-c3ccccc3)n2)c1 [Compound 79, 3-(3-Phenyl-pyrazol-1-yl)-benzoic acid] | 180 to 182
22 | O=C(O)c1ccc(-n2cc(-c3cccc(O)c3)cn2)cc1 [Compound 206, 4-[4-(3-Hydroxy-phenyl)-pyrazol-1-yl]-benzoic acid] | 273 to 275
23 | CC(C)c1ccc(-n2nc(-c3ccc(C(=O)O)cc3)oc2=O)cc1 [Compound 276, 4-[4-(4-Isopropyl-phenyl)-5-oxo-4,5-dihydro-[1,3,4]oxadiazol-2-yl]-benzoic acid] | 263 to 267
24 | O=C(O)c1cccc(-c2ncn(-c3ccc(OC(F)(F)F)cc3)n2)c1 [Compound 19, 3-[1-(4-Trifluoromethoxy-phenyl)-1H-[1,2,4]triazol-3-yl]-benzoic acid] | 219 to 221
25 | O=C(O)c1ccc(-c2cnn(-c3ccc(OC(F)(F)F)cc3)c2)cc1 [Compound 134, 4-[1-(4-Trifluoromethoxy-phenyl)-1H-pyrazol-4-yl]-benzoic acid] | 246 to 248

Row | SMILES | melting point [°C]
26 | O=C(O)c1cccc(-n2ccc(-c3ccc(F)cc3)n2)c1 [Compound 92, 3-[3-(4-Fluoro-phenyl)-pyrazol-1-yl]-benzoic acid] | 237 to 240
27 | N#Cc1cccc(-c2ccn(-c3ccc(OC(F)(F)F)cc3)n2)c1 [Compound 61, 3-[1-(4-Trifluoromethoxy-phenyl)-1H-pyrazol-3-yl]-benzonitrile] | 83 to 84
28 | COc1cccc(-n2cc(-c3cccc(C(=O)O)c3)cn2)c1 [Compound 174, 3-[1-(3-Methoxy-phenyl)-1H-pyrazol-4-yl]-benzoic acid] | 156 to 157
29 | O=C(O)c1cccc(-c2ncn(-c3ccc(F)cc3)n2)c1 [Compound 13, 3-[1-(4-Fluoro-phenyl)-1H-[1,2,4]triazol-3-yl]-benzoic acid] | > 310
30 | Cc1ccc(-n2cc(-c3ccc(C(=O)O)cc3)cn2)cc1Cl [Compound 231, 4-[1-(3-Chloro-4-methyl-phenyl)-1H-pyrazol-4-yl]-benzoic acid] | 285 to 288
31 | Cc1nc(-c2cccc(C(=O)O)c2)nn1-c1ccc(Br)cc1 [Compound 33, 3-[1-(4-Bromo-phenyl)-5-methyl-1H-[1,2,4]triazol-3-yl]-benzoic acid] | 295 to 298
32 | O=C(O)c1cccc(-n2cc(-c3cnc4ccccc4n3)cn2)c1 [Compound 122, 3-(4-Quinoxalin-2-yl-pyrazol-1-yl)-benzoic acid] | 325 to 326
33 | O=C(O)c1ccc([N+](=O)[O-])c(-c2cnn(-c3ccc(Cl)cc3)c2)c1 [Compound 56, 3-[1-(4-Chloro-phenyl)-1H-pyrazol-4-yl]-4-nitro-benzoic acid] | 270 to 271
34 | CC(=O)c1ccc(-n2ccc(-c3ccc(C(=O)O)cc3)n2)cc1 [Compound 256, 4-[1-(4-Acetyl-phenyl)-1H-pyrazol-3-yl]-benzoic acid] | 278 to 279
35 | CC(C)c1ccc(-c2ccn(-c3cccc(C(=O)O)c3)n2)cc1 [Compound 5, 3-[3-(4-Isopropyl-phenyl)-pyrazol-1-yl]-benzoic acid] | 215 to 216
36 | O=C(O)c1cccc(-c2ccn(-c3ccc(F)c(F)c3)n2)c1 [Compound 68, 3-[1-(3,4-Difluoro-phenyl)-1H-pyrazol-3-yl]-benzoic acid] | 240 to 244
37 | O=C(O)c1ccc(-c2cnn(-c3ccc(F)cc3F)c2)cc1 [Compound 180, 4-[1-(2,4-Difluoro-phenyl)-1H-pyrazol-4-yl]-benzoic acid] | 258 to 260
38 | O=C(O)c1cccc(-n2ccc(-c3ccccc3F)n2)c1 [Compound 169, 3-[3-(2-Fluoro-phenyl)-pyrazol-1-yl]-benzoic acid] | 166 to 167
39 | COc1cccc(-c2ccn(-c3ccc(C(=O)O)cc3)n2)c1 [Compound 221, 4-[3-(3-Methoxy-phenyl)-pyrazol-1-yl]-benzoic acid] | 200 to 202
40 | O=C(O)c1ccc(-n2cc(-c3ccc(Cl)cc3)cn2)cc1 [Compound 52, 4-[4-(4-Chloro-phenyl)-pyrazol-1-yl]-benzoic acid] | 300 to 302
41 | Cc1ccc(-n2cnc(-c3cccc(C(=O)O)c3)n2)cc1 [Compound 14, 3-(1-p-Tolyl-1H-[1,2,4]triazol-3-yl)-benzoic acid] | 263 to 265
42 | Cc1ccc(-n2cnc(-c3cccc(C(=O)O)c3)n2)cc1Cl [Compound 38, 3-[1-(3-Chloro-4-methyl-phenyl)-1H-[1,2,4]triazol-3-yl]-benzoic acid] | 269 to 272
43 | O=C(O)c1cccc(-c2cnn(-c3ccc(OC(F)(F)F)cc3)c2)c1 [Compound 133, 3-[1-(4-Trifluoromethoxy-phenyl)-1H-pyrazol-4-yl]-benzoic acid] | 213 to 215
44 | O=C(O)c1ccc(-n2cc(-c3cccc(Oc4ccccc4)c3)cn2)cc1 [Compound 215, 4-[4-(3-Phenoxy-phenyl)-pyrazol-1-yl]-benzoic acid] | 211 to 213
45 | O=C(O)c1ccc(-n2cc(-c3ccncn3)cn2)cc1 [Compound 118, 4-(4-Pyrimidin-4-yl-pyrazol-1-yl)-benzoic acid] | > 350
46 | O=C(O)c1ccc(-n2cc(-c3cnccn3)cn2)cc1 [Compound 120, 4-(4-Pyrazin-2-yl-pyrazol-1-yl)-benzoic acid] | 319 to 321
47 | O=C(O)c1ccc(-n2cc(-c3ccccn3)cn2)cc1 [Compound 114, 4-(4-Pyridin-2-yl-pyrazol-1-yl)-benzoic acid] | 260 to 262
48 | O=C(O)c1ccc(-n2cnc(-c3ccccc3)c2)cc1 [Compound 263, 4-(4-Phenyl-imidazol-1-yl)-benzoic acid] | 263 to 265
49 | O=C(O)c1cccc(-c2ccn(-c3ccc(O)cc3)n2)c1 [Compound 74, 3-[1-(4-Hydroxy-phenyl)-1H-pyrazol-3-yl]-benzoic acid] | 228 to 230
50 | O=C(O)c1cccc(-n2cc3c(n2)-c2cccc(OC(F)F)c2CC3)c1 [Compound 183, 3-(6-Difluoromethoxy-4,5-dihydro-benzo[g]indazol-2-yl)-benzoic acid] | 235 to 237
